Laboratory results taken from the supplement of paper PMC4862054.

How the values were obtained:
Settings in all cases: incubation time: 72 h
MDA-MB-436 [1] = experiment: normalised response (% of control), CellTox Green; higher = less cell death (100 = DMSO, 0 = benzethonium chloride kill control)
Method in brief: (§1)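 Breast cancer cell lines (20 µl suspension) were seeded into 384-well plates holding compound at 5 concentrations in 10-fold steps over a compound-specific 10,000-fold range, then incubated 72 h. CellTox Green fluorescence (485/520 nm) was read first, then CellTiter-Glo luminescence after 10 min at room temperature. Each plate was normalised to 0.1 % DMSO (100) and a positive kill control (0). Each value is the normalised signal at a single concentration of the series.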

CAL-120 [2] = experiment: as above
Method in brief: as §1

MFM-223 [3] = experiment: as above
Method in brief: as §1

CAL-51 [4] = experiment: as above
Method in brief: as §1

BT-474 [5] = experiment: as above
Method in brief: as §1

HDQ-P1 [6] = experiment: as above
Method in brief: as §1

MDA-MB-231 [7] = experiment: as above
Method in brief: as §1

CAL-148 [8] = experiment: as above
Method in brief: as §1

BT-549 [9] = experiment: as above
Method in brief: as §1

CAL-85-1 [10] = experiment: as above
Method in brief: as §1

HCC1599 [11] = experiment: as above
Method in brief: as §1

HCC1937 [12] = experiment: as above
Method in brief: as §1

HCC1143 [13] = experiment: as above
Method in brief: as §1

MDA-MB-468 [14] = experiment: as above
Method in brief: as §1

MDA-MB-453 [15] = experiment: as above
Method in brief: as §1

DU-4475 [16] = experiment: as above
Method in brief: as §1

Hs578T [17] = experiment: as above
Method in brief: as §1

MDA-MB-436 [18] = experiment: normalised response (% of control), CellTiter-Glo; higher = more viable cells (100 = DMSO, 0 = benzethonium chloride kill control)
Method in brief: as §1

CAL-120 [19] = experiment: as above
Method in brief: as §1

MFM-223 [20] = experiment: as above
Method in brief: as §1

CAL-51 [21] = experiment: as above
Method in brief: as §1

BT-474 [22] = experiment: as above
Method in brief: as §1

HDQ-P1 [23] = experiment: as above
Method in brief: as §1

MDA-MB-231 [24] = experiment: as above
Method in brief: as §1

CAL-148 [25] = experiment: as above
Method in brief: as §1

BT-549 [26] = experiment: as above
Method in brief: as §1

CAL-85-1 [27] = experiment: as above
Method in brief: as §1

HCC1599 [28] = experiment: as above
Method in brief: as §1

SK-BR-3 = experiment: as above
Method in brief: as §1

MCF-10A [29] = experiment: as above
Method in brief: as §1

HCC1937 [30] = experiment: as above
Method in brief: as §1

HCC1143 [31] = experiment: as above
Method in brief: as §1

MDA-MB-468 [32] = experiment: as above
Method in brief: as §1

MDA-MB-453 [33] = experiment: as above
Method in brief: as §1

DU-4475 [34] = experiment: as above
Method in brief: as §1

Hs578T [35] = experiment: as above
Method in brief: as §1

MCF-10A [36] = experiment: normalised response (% of control), CellTox Green; higher = less cell death (100 = DMSO, 0 = benzethonium chloride kill control)
Method in brief: as §1

CO[C@H]1C[C@@H]2CC[C@@H](C)[C@@](O)(O2)C(=O)C(=O)N2CCCC[C@H]2C(=O)O[C@H]([C@H](C)C[C@@H]2CC[C@@H](OC(=O)C(C)(CO)CO)[C@H](OC)C2)CC(=O)[C@H](C)/C=C(\C)[C@@H](O)[C@@H](OC)C(=O)[C@H](C)C[C@H](C)/C=C/C=C/C=C/1C [Temsirolimus] (10 nM)
normalised response (MDA-MB-436 [1]): 102%
normalised response (CAL-120 [2]): 101%
normalised response (MFM-223 [3]): 75.2%
normalised response (CAL-51 [4]): 107%
normalised response (BT-474 [5]): 103%
normalised response (HDQ-P1 [6]): 97.4%
normalised response (MDA-MB-231 [7]): 124%
normalised response (CAL-148 [8]): 90.9%
normalised response (BT-549 [9]): 134%
normalised response (CAL-85-1 [10]): 95.8%
normalised response (HCC1599 [11]): 101%
normalised response (HCC1937 [12]): -57.4%
normalised response (HCC1143 [13]): 84%
normalised response (MDA-MB-468 [14]): 103%
normalised response (MDA-MB-453 [15]): 107%
normalised response (DU-4475 [16]): 95.5%
normalised response (Hs578T [17]): -83.2%
normalised response (MDA-MB-436 [18]): 79.9%
normalised response (CAL-120 [19]): 67.8%
normalised response (MFM-223 [20]): 70.7%
normalised response (CAL-51 [21]): 55.5%
normalised response (BT-474 [22]): 83.3%
normalised response (HDQ-P1 [23]): 77.4%
normalised response (MDA-MB-231 [24]): 93%
normalised response (CAL-148 [25]): 62.1%
normalised response (BT-549 [26]): 55.1%
normalised response (CAL-85-1 [27]): 67.9%
normalised response (HCC1599 [28]): 109%
normalised response (SK-BR-3): 60.7%
normalised response (MCF-10A [29]): 87.7%
normalised response (HCC1937 [30]): 74.4%
normalised response (HCC1143 [31]): 63.9%
normalised response (MDA-MB-468 [32]): 62.1%
normalised response (MDA-MB-453 [33]): 53.5%
normalised response (DU-4475 [34]): 74.8%
normalised response (Hs578T [35]): 70%

O=C(c1ccc(C(=O)N2CCC(N3CCCC3)CC2)c(Nc2ccccc2)c1)N1CCC(N2CCCC2)CC1 [UNC1215] (3000 nM)
normalised response (MDA-MB-436 [1]): 96.3%
normalised response (CAL-120 [2]): 99.3%
normalised response (MFM-223 [3]): 101%
normalised response (CAL-51 [4]): 114%
normalised response (BT-474 [5]): 96.9%
normalised response (MDA-MB-231 [7]): 98%
normalised response (CAL-148 [8]): 99.7%
normalised response (BT-549 [9]): 85.1%
normalised response (CAL-85-1 [10]): 96.8%
normalised response (HCC1599 [11]): 99.8%
normalised response (MCF-10A [36]): 101%
normalised response (HCC1937 [12]): 111%
normalised response (HCC1143 [13]): 109%
normalised response (MDA-MB-468 [14]): 80.5%
normalised response (MDA-MB-453 [15]): 99.2%
normalised response (DU-4475 [16]): 98.5%
normalised response (MDA-MB-436 [18]): 92.8%
normalised response (CAL-120 [19]): 98%
normalised response (MFM-223 [20]): 92.6%
normalised response (CAL-51 [21]): 115%
normalised response (BT-474 [22]): 95%
normalised response (HDQ-P1 [23]): 100%
normalised response (MDA-MB-231 [24]): 91.2%
normalised response (CAL-148 [25]): 94.9%
normalised response (BT-549 [26]): 96.9%
normalised response (CAL-85-1 [27]): 94.7%
normalised response (HCC1599 [28]): 107%
normalised response (SK-BR-3): 93.5%
normalised response (MCF-10A [29]): 108%
normalised response (HCC1937 [30]): 94%
normalised response (HCC1143 [31]): 93.9%
normalised response (MDA-MB-468 [32]): 91.6%
normalised response (MDA-MB-453 [33]): 98%
normalised response (DU-4475 [34]): 98.3%
normalised response (Hs578T [35]): 95.3%

CN1CCC(COc2cnc(-c3cccc(Cn4nc(-c5cccc(C#N)c5)ccc4=O)c3)nc2)CC1 (100 nM)
normalised response (MDA-MB-436 [1]): 99.9%
normalised response (CAL-120 [2]): 98.9%
normalised response (MFM-223 [3]): 101%
normalised response (CAL-51 [4]): 93.3%
normalised response (BT-474 [5]): 97.9%
normalised response (HDQ-P1 [6]): 103%
normalised response (MDA-MB-231 [7]): 119%
normalised response (CAL-148 [8]): 103%
normalised response (BT-549 [9]): 149%
normalised response (CAL-85-1 [10]): 95.1%
normalised response (HCC1599 [11]): 110%
normalised response (MCF-10A [36]): 102%
normalised response (HCC1937 [12]): 125%
normalised response (HCC1143 [13]): 101%
normalised response (MDA-MB-468 [14]): 157%
normalised response (MDA-MB-453 [15]): 107%
normalised response (DU-4475 [16]): 97.6%
normalised response (Hs578T [17]): 110%
normalised response (MDA-MB-436 [18]): 93.1%
normalised response (CAL-120 [19]): 95.8%
normalised response (MFM-223 [20]): 90.5%
normalised response (CAL-51 [21]): 74%
normalised response (BT-474 [22]): 92.7%
normalised response (HDQ-P1 [23]): 98.9%
normalised response (MDA-MB-231 [24]): 101%
normalised response (CAL-148 [25]): 100%
normalised response (BT-549 [26]): 94%
normalised response (CAL-85-1 [27]): 93.5%
normalised response (HCC1599 [28]): 102%
normalised response (SK-BR-3): 82.2%
normalised response (MCF-10A [29]): 99.3%
normalised response (HCC1937 [30]): 97.7%
normalised response (HCC1143 [31]): 93.3%
normalised response (MDA-MB-468 [32]): 90.9%
normalised response (MDA-MB-453 [33]): 85.2%
normalised response (DU-4475 [34]): 100%
normalised response (Hs578T [35]): 104%

CC(=O)O[C@]1(C(C)=O)CC[C@H]2[C@@H]3C=C(C)C4=CC(=O)CC[C@]4(C)[C@H]3CC[C@@]21C [Megestrol acetate] (1 nM)
normalised response (MDA-MB-436 [18]): 101%
normalised response (CAL-120 [19]): 94.9%
normalised response (MFM-223 [20]): 98%
normalised response (CAL-51 [21]): 120%
normalised response (BT-474 [22]): 95.9%
normalised response (HDQ-P1 [23]): 99.8%
normalised response (MDA-MB-231 [24]): 98.5%
normalised response (CAL-148 [25]): 99.9%
normalised response (BT-549 [26]): 97.7%
normalised response (CAL-85-1 [27]): 98.9%
normalised response (HCC1599 [28]): 96.5%
normalised response (SK-BR-3): 99.2%
normalised response (MCF-10A [29]): 101%
normalised response (HCC1937 [30]): 95.4%
normalised response (HCC1143 [31]): 95.2%
normalised response (MDA-MB-468 [32]): 88.8%
normalised response (MDA-MB-453 [33]): 131%
normalised response (DU-4475 [34]): 97.5%
normalised response (Hs578T [35]): 96.8%
